Laboratory results taken from ChEMBL document CHEMBL1201862, “PubChem BioAssay data set” (2004).
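Protocol summary: plate cells (96-well), add compound at 5 concentrations, incubate 48 h, interpolate endpoints linearly. Abbreviation: GI50, concentration required for 50% inhibition of growth.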 The source made the active and inactive calls. Cut-off read from the data, not from the text of the source: active = GI50 up to about 1.1 µM and inactive = higher.

Assays:
Experiment in all cases: inhibition of tumour cell growth, NCI panel, 48 h
[1] = test system: A549
[2] = test system: UO-31
[3] = test system: SW-620
[4] = test system: UACC-62
[5] = test system: HCT-116
[6] = test system: U-251
[7] = test system: OVCAR-5
[8] = test system: SK-MEL-28
[9] = test system: SF-295
[10] = test system: PC-3
[11] = test system: COLO 205
[12] = test system: NCI-H522
[13] = test system: MDA-MB-231
[14] = test system: K562
[15] = test system: NCI-H23
[16] = test system: OVCAR-8
[17] = test system: TK-10
[18] = test system: Hs-578T
[19] = test system: RXF 393
[20] = test system: UACC-257
[21] = test system: BT-549
[22] = test system: T47D
[23] = test system: HCT-15
[24] = test system: HCC 2998
[25] = test system: DU-145
[26] = test system: HT-29
[27] = test system: SF-268
[28] = test system: SF-539
[29] = test system: SK-MEL-2
[30] = test system: HL-60
[31] = test system: NCI/ADR-RES
[32] = test system: MCF7
[33] = test system: SK-OV-3
[34] = test system: SN12C
[35] = test system: 786-0
[36] = test system: A498
[37] = test system: KM12
[38] = test system: LOX IMVI
[39] = test system: MOLT-4
[40] = test system: IGROV-1
[41] = test system: MDA-N
[42] = test system: OVCAR-3
[43] = test system: SK-MEL-5
[44] = test system: CCRF-CEM
[45] = test system: OVCAR-4
[46] = test system: EKVX
[47] = test system: M14
[48] = test system: MDA-MB-435
[49] = test system: SNB-75
[50] = test system: NCI-H460
[51] = test system: HOP-62
[52] = test system: NCI-H226
[53] = test system: SNB-19
[54] = test system: Malme-3M
[55] = test system: ACHN
[56] = test system: SR
[57] = test system: HOP-92
[58] = test system: RPMI-8226
[59] = test system: CAKI-1

## CCCNC(C#N)c1ccc(OCCCCCCCCCCOc2ccc(C(C#N)NCCC)cc2)cc1 (stereo not given)
[1]
  GI50: 47 µM (inactive)
[2]
  GI50: 51.8 µM (inactive)
[3]
  GI50: 41.3 µM (inactive)
[4]
  GI50: 61.2 µM (inactive)
[5]
  GI50: 31.9 µM (inactive)
[6]
  GI50: 20.9 µM (inactive)
[7]
  GI50: 69.8 µM (inactive)
[8]
  GI50: > 100 µM (inactive)
[9]
  GI50: 31.3 µM (inactive)
[10]
  GI50: 30.8 µM (inactive)
[11]
  GI50: > 100 µM (inactive)
[12]
  GI50: 72.6 µM (inactive)
[13]
  GI50: > 100 µM (inactive)
[14]
  GI50: 23.6 µM (inactive)
[15]
  GI50: 51.3 µM (inactive)
[16]
  GI50: 30.9 µM (inactive)
[17]
  GI50: 29.2 µM (inactive)
[18]
  GI50: 37.7 µM (inactive)
[19]
  GI50: 23.9 µM (inactive)
[20]
  GI50: 48.5 µM (inactive)
[21]
  GI50: 75 µM (inactive)
[22]
  GI50: 64 µM (inactive)
[23]
  GI50: 47.3 µM
[24]
  GI50: > 100 µM (inactive)
[25]
  GI50: 49 µM (inactive)
[26]
  GI50: 51.1 µM (inactive)
[27]
  GI50: 61.8 µM (inactive)
[28]
  GI50: 55.2 µM (inactive)
[29]
  GI50: 38.5 µM (inactive)
[30]
  GI50: 17.3 µM (inactive)
[31]
  GI50: 56.8 µM (inactive)
[32]
  GI50: 35.2 µM (inactive)
[33]
  GI50: 64 µM (inactive)
[34]
  GI50: 68.9 µM (inactive)
[35]
  GI50: > 100 µM (inactive)
[36]
  GI50: 23.1 µM (inactive)
[37]
  GI50: 64.7 µM (inactive)
[38]
  GI50: 14.8 µM (inactive)
[39]
  GI50: 17.1 µM (inactive)
[40]
  GI50: 54.6 µM (inactive)
[41]
  GI50: 29.4 µM (inactive)
[42]
  GI50: 30.5 µM (inactive)
[43]
  GI50: 33.3 µM (inactive)
[44]
  GI50: 15.3 µM (inactive)
[45]
  GI50: 34.5 µM (inactive)
[46]
  GI50: 60.5 µM (inactive)
[47]
  GI50: 40.4 µM (inactive)
[48]
  GI50: 46.3 µM (inactive)
[49]
  GI50: 32.8 µM (inactive)
[50]
  GI50: 50.5 µM (inactive)
[51]
  GI50: 42.8 µM (inactive)
[52]
  GI50: 30.8 µM (inactive)
[53]
  GI50: 33.2 µM (inactive)
[54]
  GI50: 64 µM (inactive)
[55]
  GI50: 83.9 µM (inactive)
[56]
  GI50: 25.6 µM (inactive)
[57]
  GI50: 32.4 µM (inactive)

## O=C1Nc2ccccc2/C1=N/N1C(=O)/C(=C/c2ccccc2S)N=C1c1ccccc1
[1]
  GI50: 89.5 µM (inactive)
[2]
  GI50: 61.4 µM (inactive)
[3]
  GI50: 71.1 µM (inactive)
[4]
  GI50: 90.6 µM (inactive)
[5]
  GI50: 99.8 µM (inactive)
[6]
  GI50: 67.6 µM (inactive)
[58]
  GI50: 12.6 µM (inactive)
[7]
  GI50: > 100 µM (inactive)
[8]
  GI50: > 100 µM (inactive)
[9]
  GI50: > 100 µM (inactive)
[10]
  GI50: 47.8 µM (inactive)
[11]
  GI50: 76 µM (inactive)
[12]
  GI50: 40.5 µM (inactive)
[13]
  GI50: > 100 µM (inactive)
[14]
  GI50: 27.9 µM (inactive)
[15]
  GI50: 57.7 µM (inactive)
[16]
  GI50: 36.2 µM (inactive)
[17]
  GI50: > 100 µM (inactive)
[18]
  GI50: > 100 µM (inactive)
[19]
  GI50: 68.9 µM (inactive)
[20]
  GI50: > 100 µM (inactive)
[21]
  GI50: 91 µM (inactive)
[22]
  GI50: 25.5 µM (inactive)
[23]
  GI50: 83 µM
[24]
  GI50: > 100 µM (inactive)
[25]
  GI50: > 100 µM (inactive)
[26]
  GI50: > 100 µM (inactive)
[27]
  GI50: > 100 µM (inactive)
[28]
  GI50: > 100 µM (inactive)
[29]
  GI50: 42.4 µM (inactive)
[30]
  GI50: 40.9 µM (inactive)
[59]
  GI50: 91.6 µM (inactive)
[31]
  GI50: > 100 µM (inactive)
[32]
  GI50: 58.7 µM (inactive)
[33]
  GI50: > 100 µM (inactive)
[34]
  GI50: > 100 µM (inactive)
[35]
  GI50: 79.8 µM (inactive)
[36]
  GI50: > 100 µM (inactive)
[37]
  GI50: 66.4 µM (inactive)
[38]
  GI50: 44.9 µM (inactive)
[39]
  GI50: 19.5 µM (inactive)
[40]
  GI50: 97.1 µM (inactive)
[41]
  GI50: 82.4 µM (inactive)
[42]
  GI50: 33.4 µM (inactive)
[43]
  GI50: 81.8 µM (inactive)
[44]
  GI50: 33.3 µM (inactive)
[45]
  GI50: 27 µM (inactive)
[46]
  GI50: 48.3 µM (inactive)
[47]
  GI50: > 100 µM (inactive)
[48]
  GI50: 42.3 µM (inactive)
[49]
  GI50: > 100 µM (inactive)
[50]
  GI50: 73.6 µM (inactive)
[51]
  GI50: > 100 µM (inactive)
[53]
  GI50: > 100 µM (inactive)
[54]
  GI50: > 100 µM (inactive)
[55]
  GI50: 92.3 µM (inactive)
[56]
  GI50: 21.3 µM (inactive)
[57]
  GI50: 77.6 µM (inactive)
